Assay results as given in patent publication US9376418B2, “Substituted pyridine spleen tyrosine kinase (SYK) inhibitors” (Merck Sharp & Dohme Corp., priority 2012, dated 2016).

target: T1, recombinant human GST-SYK (Homo sapiens, UniProt P43405); assay: Homogeneous Time-Resolved Fluorescence (HTRF) assay for the recombinant human Syk enzyme; assay type: biochemical; details: HTRF assay, recombinant human GST-SYK; IC50 given as class symbols; read-out: rhSYK Activity
T1 construct: purchased Carna Biosciences 08-176
How it was run: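 Phosphotyrosine product from a biotinylated Syk substrate peptide was detected by HTRF (europium antibody/SA-APC, read after 30 min) following a 45-minute room-temperature reaction at 25 μM ATP, with […] preincubated 10 minutes with inhibitor.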

Row | IC50 [nM] | SMILES
1 | < 100 | Cc1cc(Nc2nccc(C(F)(F)F)n2)cc(-c2cncc(NCc3ccc[nH]c3=O)c2)c1 [Example 15.21, 3-({[5-(3-methyl-5-{[4-(trifluoromethyl)pyrimidin-2-yl]amino}phenyl)pyridin-3-yl]amino}methyl)pyridin-2(1H)-one]
2 | < 100 | Cc1cc(Nc2nccc(C(F)(F)F)n2)cc(-c2cncc(NCCO)c2)c1 [Example 15.22, 2-{[5-(3-Methyl-5-{[4-(trifluoromethyl)pyrimidin-2-yl]amino}phenyl)pyridin-3-yl]amino}ethanol]
3 | < 100 | CC(=O)N1CCN(c2cc(-c3cc(C)cc(Nc4nccc(C(F)(F)F)n4)c3)ccn2)CC1 [Example 15.23, 1-{4-[4-(3-Methyl-5-{[4-(trifluoromethyl)pyrimidin-2-yl]amino}phenyl)pyridin-2-yl]piperazin-1-yl}ethanone]
4 | < 100 | Cc1cc(Nc2nccc(C(F)(F)F)n2)cc(-c2ccnc(N3CCN(C=O)CC3)c2)c1 [Example 15.24, 4-[4-(3-methyl-5-{[4-(trifluoromethyl)pyrimidin-2-yl]amino}phenyl)pyridin-2-yl]piperazine-1-carbaldehyde]
5 | 100 to 1000 | Cc1cc(Nc2nccc(C(F)(F)F)n2)cc(-c2ccnc(N3CCC4(CCCC(=O)N4)CC3)c2)c1 [Example 15.25, 9-[4-(3-methyl-5-{[4-(trifluoromethyl)pyrimidin-2-yl]amino}phenyl)pyridin-2-yl]-1,9-diazaspiro[5.5]undecan-2-one]
6 | 1000 to 10000 | Cc1cc(Nc2nccc(C(F)(F)F)n2)cc(-c2ccnc(N3CCCC4(CCCCO4)C3)c2)c1 (stereo not drawn) [Example 15.26, N-{3-methyl-5-[2-(1-oxa-8-azaspiro[5.5]undec-8-yl)pyridin-4-yl]phenyl}-4-(trifluoromethyl)pyrimidin-2-amine]
7 | < 100 | Cc1cc(Nc2nccc(C(F)(F)F)n2)cc(-c2ccnc(N3CCCC4(CCCNC4=O)C3)c2)c1 (stereo not drawn) [Example 15.27, 8-[4-(3-methyl-5-{[4-(trifluoromethyl)pyrimidin-2-yl]amino}phenyl)pyridin-2-yl]-2,8-diazaspiro[5.5]undecan-1-one]
8 | 100 to 1000 | Cc1cc(Nc2nccc(C(F)(F)F)n2)cc(-c2ccnc(N3CCCC4(CCCO4)C3)c2)c1 (stereo not drawn) [Example 15.28, N-{3-methyl-5-[2-(1-oxa-7-azaspiro[4.5]dec-7-yl)pyridin-4-yl]phenyl}-4-(trifluoromethyl)pyrimidin-2-amine]
9 | < 100 | Cc1cc(Nc2nccc(C(F)(F)F)n2)cc(-c2ccnc(N3CCCC4(CCNC4=O)C3)c2)c1 (stereo not drawn) [Example 15.29, 7-[4-(3-methyl-5-{[4-(trifluoromethyl)pyrimidin-2-yl]amino}phenyl)pyridin-2-yl]-2,7-diazaspiro[4.5]decan-1-one]
10 | < 100 | Cc1cc(Nc2nccc(C(F)(F)F)n2)cc(-c2ccnc(N3CCCC4(CCOC4=O)C3)c2)c1 (stereo not drawn) [Example 15.30, 7-[4-(3-methyl-5-{[4-(trifluoromethyl)pyrimidin-2-yl]amino}phenyl)pyridin-2-yl]-2-oxa-7-azaspiro[4.5]decan-1-one]
11 | 100 to 1000 | Cc1cc(Nc2nccc(C(F)(F)F)n2)cc(-c2ccnc(N3CCC4(CCN(C)C4=O)CC3)c2)c1 [Example 15.31, 2-methyl-8-[4-(3-methyl-5-{[4-(trifluoromethyl)pyrimidin-2-yl]amino}phenyl)pyridin-2-yl]-2,8-diazaspiro[4.5]decan-1-one]
12 | < 100 | Cc1cc(Nc2nccc(C(F)(F)F)n2)cc(-c2ccnc(NCC3CCC(=O)N3)c2)c1 (stereo not drawn) [Example 15.32, 5-({[4-(3-methyl-5-{[4-(trifluoromethyl)pyrimidin-2-yl]amino}phenyl)pyridin-2-yl]amino}methyl)pyrrolidin-2-one]
13 | 100 to 1000 | Cc1cc(Nc2nccc(C(F)(F)F)n2)cc(-c2ccnc(NCCc3cnccn3)c2)c1 [Example 15.33, N-(3-methyl-5-{2-[(2-pyrazin-2-ylethyl)amino]pyridin-4-yl}phenyl)-4-(trifluoromethyl)pyrimidin-2-amine]
14 | 100 to 1000 | Cc1cc(Nc2nccc(C(F)(F)F)n2)cc(-c2ccnc(NC(C)c3ccccn3)c2)c1 (stereo not drawn) [Example 15.34, N-(3-methyl-5-{2-[(1-pyridin-2-ylethyl)amino]pyridin-4-yl}phenyl)-4-(trifluoromethyl)pyrimidin-2-amine]
15 | 100 to 1000 | Cc1cc(Nc2nccc(C(F)(F)F)n2)cc(-c2ccnc(NCc3cnn(C)c3)c2)c1 [Example 15.35, N-[3-methyl-5-(2-{[(1-methyl-1H-pyrazol-4-yl)methyl]amino}pyridin-4-yl)phenyl]-4-(trifluoromethyl)pyrimidin-2-amine]
16 | 100 to 1000 | Cc1cc(Nc2nccc(C(F)(F)F)n2)cc(-c2ccnc(N3CCCC34CCNC4=O)c2)c1 (stereo not drawn) [Example 15.36, 1-[4-(3-methyl-5-{[4-(trifluoromethyl)pyrimidin-2-yl]amino}phenyl)pyridin-2-yl]-1,7-diazaspiro[4.4]nonan-6-one]
17 | < 100 | CCC(CO)Nc1cc(-c2cc(C)cc(Nc3nccc(C(F)(F)F)n3)c2)ccn1 (stereo not drawn) [Example 15.37, 2-{[4-(3-methyl-5-{[4-(trifluoromethyl)pyrimidin-2-yl]amino}phenyl)pyridin-2-yl]amino}butan-1-ol]

Row | IC50 [nM] | SMILES
18 | 100 to 1000 | Cc1cc(Nc2nccc(C(F)(F)F)n2)cc(-c2ccnc(NCc3cncn3C)c2)c1 [Example 15.38, N-[3-methyl-5-(2-{[(1-methyl-1H-imidazol-5-yl)methyl]amino}pyridin-4-yl)phenyl]-4-(trifluoromethyl)pyrimidin-2-amine]
19 | 100 to 1000 | Cc1cc(Nc2nccc(C(F)(F)F)n2)cc(-c2ccnc(N3CCN(C(=O)c4ccc5cc[nH]c5c4)CC3)c2)c1 [Example 15.39, N-(3-{2-[4-(1H-indol-6-ylcarbonyl)piperazin-1-yl]pyridin-4-yl}-5-methylphenyl)-4-(trifluoromethyl)pyrimidin-2-amine]
20 | 100 to 1000 | Cc1cc(Nc2nccc(C(F)(F)F)n2)cc(-c2ccnc(NCc3cn(C)cn3)c2)c1 [Example 15.40, N-[3-methyl-5-(2-{[(1-methyl-1H-imidazol-4-yl)methyl]amino}pyridin-4-yl)phenyl]-4-(trifluoromethyl)pyrimidin-2-amine]
21 | < 100 | Cc1cc(Nc2nccc(C(F)(F)F)n2)cc(-c2ccnc(NCCN)c2)c1 [Example 15.41, N-[4-(3-methyl-5-{[4-(trifluoromethyl)pyrimidin-2-yl]amino}phenyl)pyridin-2-yl]ethane-1,2-diamine]
22 | < 100 | Cc1cc(Nc2nccc(C(F)(F)F)n2)cc(-c2ccnc(N3CCNC(=O)CC3)c2)c1 [Example 15.42, 1-[4-(3-methyl-5-{[4-(trifluoromethyl)pyrimidin-2-yl]amino}phenyl)pyridin-2-yl]-1,4-diazepan-5-one]
23 | < 100 | Cc1cc(Nc2nccc(C(F)(F)F)n2)cc(-c2ccnc(NC(C)(C)C(=O)O)c2)c1 [Example 15.43, 2-methyl-N-[4-(3-methyl-5-{[4-(trifluoromethyl)pyrimidin-2-yl]amino}phenyl)pyridin-2-yl]alanine]
24 | < 100 | Cc1cc(Nc2nccc(C(F)(F)F)n2)cc(-c2ccnc(N3CCNC(=O)C3)c2)c1 [Example 15.44, 4-[4-(3-methyl-5-{[4-(trifluoromethyl)pyrimidin-2-yl]amino}phenyl)pyridin-2-yl]piperazin-2-one]
25 | < 100 | Cc1cc(Nc2nccc(C(F)(F)F)n2)cc(-c2ccnc(N(C)CCO)c2)c1 [Example 15.45, 2-{methyl[4-(3-methyl-5-{[4-(trifluoromethyl)pyrimidin-2-yl]amino}phenyl)pyridin-2-yl]amino}ethanol]
26 | < 100 | Cc1cc(Nc2nccc(C(F)(F)F)n2)cc(-c2ccnc(N3CCC(C(N)=O)CC3)c2)c1 [Example 15.46, 1-[4-(3-methyl-5-{[4-(trifluoromethyl)pyrimidin-2-yl]amino}phenyl)pyridin-2-yl]piperidine-4-carboxamide]
27 | < 100 | Cc1cc(Nc2nccc(C(F)(F)F)n2)cc(-c2ccnc(N3CCN(C)C(=O)C3)c2)c1 [Example 15.47, 1-methyl-4-[4-(3-methyl-5-{[4-(trifluoromethyl)pyrimidin-2-yl]amino}phenyl)pyridin-2-yl]piperazin-2-one]
28 | < 100 | Cc1cc(Nc2nccc(C(F)(F)F)n2)cc(-c2ccnc(N[C@@H](C)CO)c2)c1 [Example 15.48, (2S)-2-{[4-(3-methyl-5-{[4-(trifluoromethyl)pyrimidin-2-yl]amino}phenyl)pyridin-2-yl]amino}propan-1-ol]
29 | < 100 | Cc1cc(Nc2nccc(C(F)(F)F)n2)cc(-c2ccnc(NC(C)(CO)CO)c2)c1 [Example 15.49, 2-methyl-2-{[4-(3-methyl-5-{[4-(trifluoromethyl)pyrimidin-2-yl]amino}phenyl)pyridin-2-yl]amino}propane-1,3-diol]
30 | < 100 | Cc1cc(Nc2nccc(C(F)(F)F)n2)cc(-c2ccnc(NC3(CO)CCCC3)c2)c1 [Example 15.50, (1-{[4-(3-methyl-5-{[4-(trifluoromethyl)pyrimidin-2-yl]amino}phenyl)pyridin-2-yl]amino}cyclopentyl)methanol]
31 | < 100 | Cc1cc(Nc2nccc(C(F)(F)F)n2)cc(-c2ccnc(NC(C)(C)CO)c2)c1 [Example 15.51, 2-methyl-2-{[4-(3-methyl-5-{[4-(trifluoromethyl)pyrimidin-2-yl]amino}phenyl)pyridin-2-yl]amino}propan-1-ol]
32 | < 100 | Cc1cc(Nc2nccc(C(F)(F)F)n2)cc(-c2ccnc(NC[C@@H](C)O)c2)c1 [Example 15.52, (2R)-1-{[4-(3-methyl-5-{[4-(trifluoromethyl)pyrimidin-2-yl]amino}phenyl)pyridin-2-yl]amino}propan-2-ol]
33 | < 100 | Cc1cc(Nc2nccc(C(F)(F)F)n2)cc(-c2ccnc(N3CC(O)C3)c2)c1 [Example 15.53, 1-[4-(3-methyl-5-{[4-(trifluoromethyl)pyrimidin-2-yl]amino}phenyl)pyridin-2-yl] azetidin-3-ol]
